Results reported in ChEMBL document CHEMBL1201862, “PubChem BioAssay data set” (2004).
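Interpolation was linear, between the two tested concentrations surrounding the appropriate level; five concentrations were tested over 48 hours in 96-well plates. GI50 is the concentration that inhibits growth by half.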 The source made the active and inactive calls. Cut-off read from the data, not from the text of the source: active = GI50 up to about 1.1 µM and inactive = higher.

Key:
Assay in all cases: NCI tumour cell line growth inhibition, 48 h
[1] = system: BT-549
[2] = system: UACC-257
[3] = system: LOX IMVI
[4] = system: CCRF-CEM
[5] = system: SN12C
[6] = system: NCI-H522
[7] = system: M14
[8] = system: SF-268
[9] = system: NCI-H226
[10] = system: UACC-62
[11] = system: SK-OV-3
[12] = system: SW-620
[13] = system: EKVX
[14] = system: RPMI-8226
[15] = system: OVCAR-5
[16] = system: HOP-62
[17] = system: HOP-92
[18] = system: Hs-578T
[19] = system: HT-29
[20] = system: OVCAR-3

Measured: GI50

O=C(c1cscc1CCc1ccccc1)c1cscc1CCc1ccccc1
inactive: [1] > 100 µM | [2] > 100 µM | [3] > 100 µM | [4] > 100 µM | [5] > 100 µM | [6] > 100 µM | [7] > 100 µM | [8] > 100 µM | [9] > 100 µM | [10] > 100 µM | [11] > 100 µM | [12] > 100 µM | [13] > 100 µM | [14] > 100 µM | [15] > 100 µM | [16] > 100 µM

C/C1=C\CC[C@@]2(C)O[C@@H]2[C@H]2OC(=O)C(C)C2C[C@H]1O (some centres not stated)
inactive: [17] > 100 µM | [2] > 100 µM | [3] > 100 µM | [4] > 100 µM | [5] > 100 µM | [6] > 100 µM | [7] > 100 µM | [18] 10.3 µM | [8] > 100 µM | [10] > 100 µM | [19] > 100 µM | [11] > 100 µM | [12] > 100 µM | [13] > 100 µM | [14] > 100 µM | [15] > 100 µM

CN(C)c1cccc(NC2=NCCO2)c1
inactive: [17] 12.2 µM | [2] 48.9 µM | [3] 31.9 µM | [4] 33 µM | [5] 52.5 µM | [6] 80.2 µM | [7] 37.5 µM | [18] 43.6 µM | [8] 92 µM | [9] 47.2 µM | [10] 50.7 µM | [19] 19.2 µM | [12] 57.7 µM | [13] 78.5 µM | [14] 65.5 µM | [15] > 100 µM | [16] 81.1 µM | [20] 59.4 µM

CCNc1cc2c3c(c1)CCCN3CCC2
inactive: [17] 12.6 µM | [2] 19.7 µM | [3] 3.1 µM | [4] 2.38 µM | [5] 2.87 µM | [6] 21 µM | [7] 26.4 µM | [18] 25.6 µM | [8] 16.9 µM | [9] 20.4 µM | [10] 17.7 µM | [19] 6.78 µM | [11] 20 µM | [12] 21.3 µM | [13] 4.03 µM | [14] 4.46 µM | [15] 21.6 µM | [16] 14.6 µM | [20] 2.32 µM

CC1(C)N=C(/C=N/O)C(C)(C)N1O
inactive: [17] > 100 µM | [3] > 100 µM | [4] > 100 µM | [5] > 100 µM | [6] > 100 µM | [7] > 100 µM | [18] > 100 µM | [8] > 100 µM | [9] > 100 µM | [10] > 100 µM | [19] > 100 µM | [11] > 100 µM | [12] > 100 µM | [13] > 100 µM | [14] > 100 µM | [15] > 100 µM | [16] > 100 µM | [20] > 100 µM

O=C(Cn1c(-c2ccccc2)cc2ccccc21)N1CCOCC1
inactive: [17] > 100 µM | [2] > 100 µM | [3] > 100 µM | [4] > 100 µM | [5] > 100 µM | [6] > 100 µM | [7] > 100 µM | [18] > 100 µM | [8] 34.4 µM | [9] > 100 µM | [10] > 100 µM | [19] > 100 µM | [11] > 100 µM | [12] > 100 µM | [13] > 100 µM | [14] > 100 µM | [15] > 100 µM | [16] 32.7 µM | [20] > 100 µM

CC1=NN(c2cccc(Cl)c2)C(=N/c2nc3ccccc3s2)/C1=C\c1cccs1
inactive: [17] 32.4 µM | [2] 37.4 µM | [3] 40.7 µM | [4] 19.6 µM | [6] 27.9 µM | [7] 70.1 µM | [18] 26.1 µM | [8] 33.2 µM | [9] 36.4 µM | [19] 23.4 µM | [11] 25.9 µM | [12] 54.2 µM | [13] 24.1 µM | [14] 13.4 µM | [15] > 100 µM | [16] 19.5 µM | [20] 13 µM

Cc1c(Cl)cccc1/N=N/C(=O)NNc1cccc(Cl)c1C
inactive: [1] 14.1 µM | [2] 23.1 µM | [3] 21.3 µM | [4] 16.9 µM | [5] 17.3 µM | [6] 23.1 µM | [7] 19.2 µM | [8] 16.9 µM | [9] 15.8 µM | [10] 11.9 µM | [19] 20.4 µM | [12] 17.1 µM | [14] 25.5 µM | [15] 14.1 µM | [16] 12.8 µM | [20] 17.6 µM

COc1ccc(NC(C)=O)cc1C1CCC(=O)N1 (configuration not stated)
inactive: [17] > 100 µM | [2] > 100 µM | [3] > 100 µM | [4] > 100 µM | [5] > 100 µM | [6] > 100 µM | [7] > 100 µM | [18] > 100 µM | [8] > 100 µM | [9] > 100 µM | [10] > 100 µM | [19] > 100 µM | [11] > 100 µM | [12] > 100 µM | [13] > 100 µM | [14] > 100 µM | [15] > 100 µM | [16] > 100 µM | [20] > 100 µM

C=CN(C=C)C(=O)Cn1cc(-c2ccccc2)nn1
inactive: [1] > 100 µM | [17] > 100 µM | [2] > 100 µM | [3] > 100 µM | [4] > 100 µM | [5] > 100 µM | [6] > 100 µM | [7] > 100 µM | [8] > 100 µM | [19] > 100 µM | [12] > 100 µM | [13] > 100 µM | [14] > 100 µM | [15] > 100 µM | [16] > 100 µM

O=[N+]([O-])c1cccc2nccc(NCCN3CCOCC3)c12
inactive: [17] 33.2 µM | [2] 10 µM | [3] 13.4 µM | [4] 5.55 µM | [5] 16.3 µM | [6] 3.95 µM | [7] 15.9 µM | [18] 15.9 µM | [8] 20.5 µM | [9] 10.2 µM | [10] > 10 µM | [19] 13.5 µM | [11] 35.2 µM | [12] 8.91 µM | [13] 10.7 µM | [14] 7.94 µM | [15] 21.4 µM | [16] 15.5 µM | [20] 14.2 µM
